What was measured:
[1] = tested on: cardiomyocytes isolated from mdx mice; assay: NOX2-mediated ROS production (DCF-DA, confocal) in mdx cardiomyocytes; type: cell-based, mouse; settings: 20 µM
From the text: Cardiomyocytes were isolated from mdx mice (C57BL/10ScSn-DMDmdx/J, stock number 001801M, Jackson Laboratories, Bar Harbor, […], USA). Male mdx mice of 19 months of age were used, which were housed in individual cages with water and food ad libitum. All the procedures were adjusted to the “Guide for the Care and Use of Laboratory Animals” (1996) of the National Institute of Health and were approved by the Institutional Committee for Animal Care and Use of the Universidad de Talca. Mice were pre-medicated with heparin i.p. (200U.) and then sacrificed by cervical dislocation. The heart was rapidly removed, cannulated through the aorta, and retrogradely perfused in a steady flow (2 mL/min) at 37 °C. The hearts were initially perfused for 10 min with a Ca^2+-free bicarbonate buffer solution containing (in mM) 120 NaCl; 5.4 KCl; 1.2 MgSO4; 1.2 NaH2PO4; 5.6 glucose; 20 NaHCO3; 10 BDM, and 5 taurine, bubbled with a 95% O2–5% CO2 mixture. Enzyme digestion was performed with collagenase type II (1 mg/mL; Worthington Biochemical Corp., Lakewood, NJ, USA) and protease type XIV (0.1 mg/mL; Sigma-Aldrich) as previously reported. Isolated cardiomyocytes were transferred to 1.5 mL Eppendorf tubes and preincubated with the heteroaryl acrylonitrile compounds.
Cardiomyocytes isolated from mdx mice were transferred to Eppendorf tubes to be incubated with 1 μM of the indole heteroaryl-acrylonitrile derivatives for 30 min, protected from light, at room temperature. VAS2870 (20 μM) was used as a positive control for NOX2 inhibition. 2′,7′-dichlorofluorescein diacetate (DCF-DA) (10 μM) was then added and incubated for 15 min. Subsequently, it was allowed to sediment by gravity to remove the supernatant, and the pellets obtained were in a phosphate saline solution (PBS). 200 μL of the cell suspension were placed on pre-treated polylysine slides (Thermo Fischer, USA) and fixed with 2% paraformaldehyde (Sigma-Aldrich®, St. Louis, MO, USA) for 10 min at 4 °C. […] From the acquired images, the fluorescence intensity was quantified at 495 nm, and the data were reported as fluorescence intensity per pixel.

[2] = target: T1, p47^phox (Homo sapiens, UniProt P14598); assay: p47phox translocation from cytosol to membrane (Western blot) in PMA-stimulated HL-60 differentiated cells; type: cell-based; settings: PMA 0.8 µM, 20 µM
T1 construct: we evaluated p47^phox translocation from the cytosol to the membrane in HL-60 differentiated cells; endogenous in cells; host or cells: neutrophil-differentiated HL-60 cells treated with PMA; membrane and cytosolic fractions obtained by cryo-fracture
T1 sequence (P14598 1-390): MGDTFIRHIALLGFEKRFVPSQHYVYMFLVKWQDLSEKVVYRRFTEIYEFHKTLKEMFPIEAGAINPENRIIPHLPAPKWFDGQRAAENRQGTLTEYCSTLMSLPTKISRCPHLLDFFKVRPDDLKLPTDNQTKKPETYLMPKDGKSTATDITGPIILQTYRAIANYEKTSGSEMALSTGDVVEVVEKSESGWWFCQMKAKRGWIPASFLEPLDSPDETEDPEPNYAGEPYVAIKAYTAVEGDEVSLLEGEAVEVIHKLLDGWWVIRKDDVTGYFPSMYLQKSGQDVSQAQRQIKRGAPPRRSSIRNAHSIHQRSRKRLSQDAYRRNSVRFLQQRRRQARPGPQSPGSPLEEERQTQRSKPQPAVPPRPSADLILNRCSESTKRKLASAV
Description: Neutrophil-differentiated HL-60 cells (2 × 10^6 cells/mL) were incubated at 37 °C in a humid atmosphere with 5% CO2 and 50 μM of the different acrylonitrile compounds, then PMA 0.8 μM was added and incubated for 1 h to induce the activation of the enzyme NADPH oxidase. As a positive inhibition control, VAS2870 (20 μM) was used. Another two controls were performed: one with cells activated by PMA in the presence of DMSO, and the other (NA, non-activated) with cells in the absence of PMA and the acrylonitrile compounds. In 15 mL conical tubes, 5 mL of cell suspension from each treatment and control condition was transferred at 2 × 10^6 cells/mL and centrifuged at 1000 rpm at 4 °C for 10 min. The supernatant was then discarded, and each pellet was re-suspended in 2 mL of a 4% PBS solution with 2 mM EGTA and 0.25 mM PMSF frozen at −80 °C for 10 min. Then each pellet was thawed on ice. After this, the cell suspension was passed through a glass tissue homogenizer (Deltalab®, I.C.T, S.L, La Rioja, Spain) 20 times. The freezing-thawing and homogenization processes were repeated three times. Finally, the homogenate was centrifuged at 15,000 rpm at 4 °C for 15 min. The supernatant (cytosolic fraction) was removed from the pellet (membranes were prepared). A fraction was removed for the determination of total proteins, and the remainder was stored at −80 °C for further analysis. […]

[3] = tested on: isolated rat hearts; assay: Ischemia-reperfusion in isolated rat heart (Langendorff); settings: 100 µM, TTC staining

Row | SMILES | NOX2-derived ROS, DCF (in words) [1] | translocation of p47phox to the membrane (in words) [2] | infarcted area (in words) [3]
1 | c1ccc(Cn2nnc3c(Sc4nc5ccccc5o4)ncnc32)cc1 [VAS2870, 7-(1,3-Benzoxazol-2-ylsulfanyl)-3-benzyl-3H-[1,2,3]triazolo [4,5-d]pyrimidine, reference compound] | reduced | significantly reduced the translocation of p47^phox to the membrane | 
2 | COc1cc(C(C)=O)ccc1O [apocynin] |  |  | reduced the infarcted area

— paper PMC10376059, “New NADPH Oxidase 2 Inhibitors Display Potent Activity against Oxidative Stress by Targeting p22^phox-p47^phox Interactions” (Antioxidants, 2023)
